The text below walks through data of US20250230138A1, “COMPOUNDS HAVING A T-STRUCTURE FORMED BY AT LEAST FOUR CYCLES FOR USE IN THE TREATMENT OF CANCER AND OTHER INDICATIONS” (TheRas, Inc., priority 2022, published 2025).

Test [1] deals with pAKT in BT474 cells. Description: Cell-based pAKT HTRF assay in BT474 cells. Particulars: BT474 cells, 4 hr incubation, read-out: pAKT inhibition IC50 in BT474 cells. In short, it runs like this: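 Cells are seeded on day 1 and dosed on day 2 with a 9-point curve (3 μM top, 3-fold). After 4 hr they are lysed and the lysate is mixed with d2- and Eu Cryptate-labelled antibodies. HTRF is read after 4–24 h at room temperature.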

The target in test [2] is Cys242 in human PIK3CA (157-299) (Homo sapiens (Human), UniProt P42336). Kind of test: Covalent modification assay using MALDI-TOF MS. It counts as biochemical. The following applies: 4 h reaction time point. In short, it runs like this:
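Covalent adduct formation was read by linear-mode MALDI-TOF with sinapinic acid matrix, reported as modified-protein peak height divided by total protein peak heights. Reactions held PIK3CA (157-299) at 1 or 3.33 μM in HEPES/NaCl/MgCl2 buffer, pH 7.3, sampled after 15 min to 4 h at room temperature.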

Where [3] appears, read: 3.33 μM protein target, 1:7.5 protein to compound ratio (compounds 1-852).
[4] abbreviates: 1 μM protein target, 1:5 protein to compound ratio (compounds 853-1279).

Each structure is given as a SMILES string. Where two headings read alike, the source gives them in different places.

Cys242 in human PIK3CA (157-299), sequence (P42336 157-299): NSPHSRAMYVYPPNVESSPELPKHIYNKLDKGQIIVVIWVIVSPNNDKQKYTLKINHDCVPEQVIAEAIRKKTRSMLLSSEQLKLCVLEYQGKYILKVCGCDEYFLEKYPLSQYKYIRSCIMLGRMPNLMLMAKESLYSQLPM

`C=CC(=O)N1CCn2nc(-c3nc(-c4cnnc(C)c4)c4ccsc4c3-c3c(F)cc(F)cc3OCC(C)O)cc2C1C` (stereo not shown) [Compound 823]: the IC50 in test [1] (Compounds 10-999) was below 100 nM. In addition, in test [2] (setting [3]), the “% of modification” value is given as “A (percent of modification of PIK3CA protein ≥75%)”.
`C=CC(=O)N1CCn2nc(-c3nc(-c4ccc5c(c4)CNC(=O)C5)c4ccsc4c3-c3c(F)cc(F)cc3OCCOC)cc2C1C` (stereo not shown) [Compound 931]: in test [1] (Compounds 10-999), the 50% inhibitory concentration (IC50) was below 100 nM. Further, the “% of modification” value in test [2] (setting [4]) is recorded as “A (percent of modification of PIK3CA protein ≥75%)”.
`C=CC(=O)N1CCc2ncc(-c3nc(-c4ccc5c(cnn5C)c4)c4sccc4c3-c3c(F)cc(F)cc3OCCOC)cc2C1` [Compound 1261, 1-[3-[4-[2,4-difluoro-6-(2-methoxyethoxy)phenyl]-7-(1-methylindazol-5-yl)thieno[2,3-c]pyridin-5-yl]-7,8-dihydro-5H-1,6-naphthyridin-6-yl]prop-2-en-1-one]: in test [1] (Homo sapiens, BT-474, Compounds 1000-1279), the IC50 was below 100 nM. Also, the “% of modification” value in test [2] (setting [4]) is reported as “A (percent of modification of PIK3CA protein ≥75%)”.
`C=CC(=O)N1CCn2nc(-c3nc(-c4ccnc(N)c4)c4ccsc4c3-c3ccc(F)cc3OCCOC)nc2C1` [Compound 193]: the IC50 in test [1] (Compounds 10-999) is below 100 nM. In addition, in test [2] (setting [3]), the “% of modification” value was “A (percent of modification of PIK3CA protein ≥75%)”.
In the same order, the values of `C=CC(=O)N1Cc2cc(-c3nc(-c4ccc5ncn(C)c(=O)c5c4)c4ccsc4c3-c3c(F)cc(F)cc3OCCOC)nn2C[C@H]1C` [Compound 842] are below 100 nM and “A (percent of modification of PIK3CA protein ≥75%)”.
For `C=CC(=O)N1CCn2nc(-c3nc(-c4ccc(CC(=O)NC)cc4)c4ccsc4c3-c3c(F)cc(F)cc3OC)cc2C1C` (stereo not shown) [Compound 1188], the IC50 in test [1] (Compounds 1000-1279) was below 100 nM. Also, the “% of modification” value in test [2] (setting [4]) was “A (percent of modification of PIK3CA protein ≥75%)”.
Regarding `C=CC(=O)N1CCc2ncc(-c3nc(-c4ccn(C)n4)c4ccsc4c3-c3c(F)cc(F)cc3OC(C)C)cc2C1` [Compound 404], the IC50 in test [1] (Compounds 10-999) is below 100 nM. The “% of modification” value in test [2] (setting [3]) is given as “A (percent of modification of PIK3CA protein ≥75%)”.
On to `C=CC(=O)N1CC(n2cc(-c3nc(-c4ccc5c(c4)CCN(C)C5)c4ccsc4c3-c3ccc(F)cc3OCCOC)cn2)C1` [Compound 78], for which the IC50 in test [1] (Compounds 10-999) is below 100 nM. Besides, in test [2] (setting [3]), the “% of modification” value is “A (percent of modification of PIK3CA protein ≥75%)”.
As to `C=CC(=O)N1CCc2ncc(-c3nc(-c4cnc(C)s4)c4ccsc4c3-c3c(F)cc(F)cc3OC(C)C)cc2C1` [Compound 392], the IC50 in test [1] (Compounds 10-999) is below 100 nM. The “% of modification” value in test [2] (setting [3]) is listed as “A (percent of modification of PIK3CA protein ≥75%)”.
As to `C=CC(=O)N1Cc2cc(-c3nc(-c4ccc5nn(C)cc5c4)c4ccsc4c3-c3c(F)cc(F)cc3OC[C@@H](C)O)nn2[C@@H](C)C1` [Compound 572, 1-((S)-2-((S)-7-(2,4-difluoro-6-((R)-2-hydroxypropoxy)phenyl)-4-(2-methyl-2H-indazol-5-yl)thieno[3,2-c]pyridin-6-yl)-7-methyl-6,7-dihydropyrazolo[1,5-a]pyrazin-5(4H)-yl)prop-2-en-1-one], the IC50 in test [1] (Compounds 10-999) was below 100 nM. The “% of modification” value in test [2] (setting [3]) is on record as “A (percent of modification of PIK3CA protein ≥75%)”.
In the same order, the values of `C/C=C/C(=O)N1CC(n2cc(-c3nc(-c4ccc5c(c4)CCNC5)c4ccsc4c3-c3ccc(F)cc3OC)cn2)C1` [Compound 129] are above 3000 nM and “D (percent of modification <25%)”.
`C=CC(=O)N1CCc2nc(-c3nc(-c4cnc5c(c4)CNC(=O)C5)c4ccsc4c3-c3ccc(F)cc3OCCOC)sc2C1` [Compound 119]: the IC50 in test [1] (Compounds 10-999) was below 100 nM. For the same compound, in test [2] (setting [3]), the “% of modification” value is recorded as “A (percent of modification of PIK3CA protein ≥75%)”.
As for `C=CC(=O)N1Cc2cc(-c3nc(-c4cnn(C)c4)c4ccsc4c3-c3c(F)cc(F)cc3OC[C@@H](C)O)nn2[C@@H](C)C1` [Compound 581], in test [1] (Compounds 10-999), the IC50 was in the range of 100 to 1000 nM. In addition, the “% of modification” value in test [2] (setting [3]) is listed as “D (percent of modification <25%)”.
In the same order, the values of `C=CC(=O)N1CCn2nc(-c3nc(-c4ccc5cn(C)nc5c4)c4ccsc4c3-c3c(F)cc(F)cc3OCCOC)cc2C1C` (stereo not shown) [Compound 766] are below 100 nM and “A (percent of modification of PIK3CA protein ≥75%)”.
Turning to `C=CC(=O)N1CCc2ncc(-c3nc(-c4ccc5c(c4)CCN(C)CC5)c4ccsc4c3-c3c(F)cc(F)cc3OCCOC)cc2C1` [Compound 1085], the half-maximal inhibitory concentration (IC50) in test [1] (Compounds 1000-1279) is below 100 nM. Also, the “% of modification” value in test [2] (setting [4]) was “A (percent of modification of PIK3CA protein ≥75%)”.
On to `C=CC(=O)N1C[C@H](C)n2nc(-c3nc(-c4ccc5ncn(C)c5c4)c4ccsc4c3-c3c(F)cc(F)cc3OCCOC)cc2[C@@H]1C` [Compound 602], for which the concentration for half-maximal inhibition (IC50) in test [1] (Compounds 10-999) is below 100 nM. Moreover, in test [2] (setting [3]), the “% of modification” value is reported as “A (percent of modification of PIK3CA protein ≥75%)”.
Consider `C=CC(=O)N1Cc2cc(-c3nc(-n4ccccc4=O)c4ccsc4c3-c3c(F)cc(F)cc3OCCOC)nn2C[C@H]1C` [Compound 964, 1-[7-[2,4-difluoro-6-(2-methoxyethoxy)phenyl]-6-[(6R)-6-methyl-5-prop-2-enoyl-6,7-dihydro-4H-pyrazolo[1,5-a]pyrazin-2-1]thieno[3,2-c]pyridin-4-yl]pyridin-2-one], for which, in test [1] (Homo sapiens, BT-474, Compounds 10-999), the IC50 was below 100 nM. Moreover, the “% of modification” value in test [2] (setting [4]) is recorded as “A (percent of modification of PIK3CA protein ≥75%)”.
Take `C=CC(=O)N1CCc2nc(-c3nc(-c4ccc5c(c4)CNCCC5)c4ccsc4c3-c3ccc(F)cc3OCCOC)sc2C1` [Compound 168]: the IC50 in test [1] (Compounds 10-999) was below 100 nM. Further, the “% of modification” value in test [2] (setting [3]) is recorded as “A (percent of modification of PIK3CA protein ≥75%)”.
In the case of `C=CC(=O)N1CCn2nc(-c3nc(-c4ccc5nn(C)cc5c4)c4ccsc4c3-c3c(F)cc(F)cc3OCCO)cc2[C@H]1C` [Compound 774], the concentration for half-maximal inhibition (IC50) in test [1] (Compounds 10-999) is below 100 nM. Also, the “% of modification” value in test [2] (setting [3]) is “A (percent of modification of PIK3CA protein ≥75%)”.
On the same counts, the results for `C=CC(=O)N1CCn2nc(-c3nc(-c4ccc5cn(C)nc5c4)c4ccsc4c3-c3c(F)cc(F)cc3OCCO)cc2[C@@H]1C` [Compound 780] are below 100 nM and “A (percent of modification of PIK3CA protein ≥75%)”.
`C=CC(=O)N1CCn2nc(-c3nc(-c4cnc5cn(C)nc5c4)c4ccsc4c3-c3c(F)cc(F)cc3OCCOC)cc2C1C` (stereo not shown) [Compound 912]: in test [1] (Compounds 10-999), the concentration for half-maximal inhibition (IC50) was below 100 nM. For the same compound, the “% of modification” value in test [2] (setting [4]) is “A (percent of modification of PIK3CA protein ≥75%)”.
As to `CC=C(C#N)C(=O)N1CCn2nc(-c3nc(-c4ccc5c(cnn5C)c4)c4ccsc4c3-c3c(F)cc(F)cc3OCCOC)cc2C1C` (stereo not shown) [Compound 1239], in test [1] (Compounds 1000-1279), the IC50 was above 1000 nM. The “% of modification” value in test [2] (setting [4]) is recorded as “C (25%≤percent of modification <50%)”.
In the case of `C=CC(=O)N1CCn2nc(-c3nc(-c4ccc5c(c4)CNC5=O)c4ccsc4c3-c3c(F)cc(F)cc3OCCO)cc2C1C` (stereo not shown) [Compound 891], the half-maximal inhibitory concentration (IC50) in test [1] (Compounds 10-999) was below 100 nM. For the same compound, the “% of modification” value in test [2] (setting [4]) is reported as “A (percent of modification of PIK3CA protein ≥75%)”.
`C=CC(=O)N1CCn2nc(-c3nc(N4CCC5(CC4)CS(=O)(=O)C5)c4ccsc4c3-c3ccc(F)cc3OC(C)C)cc2C1` [Compound 211]: in test [1] (Compounds 10-999), the IC50 was below 100 nM. Further, in test [2] (setting [3]), the “% of modification” value is listed as “A (percent of modification of PIK3CA protein ≥75%)”.
With `C=CC(=O)N1CCn2nc(-c3nc(-c4ccnc(N(C)C)c4)c4ccsc4c3-c3c(F)cc(F)cc3OCCO)cc2C1C` (stereo not shown) [Compound 959], the IC50 in test [1] (Compounds 10-999) is below 100 nM. For the same compound, in test [2] (setting [4]), the “% of modification” value is reported as “A (percent of modification of PIK3CA protein ≥75%)”.
With `C=CC(=O)N1CC(n2cc(-c3nc(-c4ccnc(N)c4)c4ccsc4c3-c3ccc(F)cc3OCCOC)ccc2=O)C1` [Compound 177], the 50% inhibitory concentration (IC50) in test [1] (Compounds 10-999) lay within 100 to 1000 nM. Further, the “% of modification” value in test [2] (setting [3]) is listed as “B (50%<percent of modification <75%)”.
As for `C=CC(=O)N1CCn2nc(-c3nc(C4CCN(C(C)C)CC4)c4ccsc4c3-c3ccc(F)cc3OCCOC)cc2C1` [Compound 220], the half-inhibitory concentration (IC50) in test [1] (Compounds 10-999) is below 100 nM. Further, in test [2] (setting [3]), the “% of modification” value was “A (percent of modification of PIK3CA protein ≥75%)”.
On to `C=CC(=O)N1CCn2nc(-c3nc(-c4ccc5c(cnn5C)c4)c4ccsc4c3-c3c(F)cc(F)cc3OCCO)cc2[C@@H]1C` [Compound 1166], for which the half-inhibitory concentration (IC50) in test [1] (Compounds 1000-1279) is 100 to 1000 nM. Also, the “% of modification” value in test [2] (setting [4]) is listed as “D (percent of modification <25%)”.
Regarding `C=CC(=O)N1CCc2ncc(-c3nc(-c4cnc(C)o4)c4ccsc4c3-c3c(F)cc(F)cc3OC(C)C)cc2C1` [Compound 455], the half-inhibitory concentration (IC50) in test [1] (Compounds 10-999) was below 100 nM. Besides, in test [2] (setting [3]), the “% of modification” value is on record as “A (percent of modification of PIK3CA protein ≥75%)”.
With `C=CC(=O)N1CCn2nc(-c3nc(-c4cccc(C#N)c4)c4ccsc4c3-c3ccc(F)cc3OCCOC)cc2C1` [Compound 270], the 50% inhibitory concentration (IC50) in test [1] (Compounds 10-999) is below 100 nM. In addition, the “% of modification” value in test [2] (setting [3]) is recorded as “A (percent of modification of PIK3CA protein ≥75%)”.
In the case of `C=CC(=O)N1CCc2nc(-c3nc(-c4ccc(=O)[nH]c4)c4ccsc4c3-c3ccc(F)cc3OCCOC)sc2C1` [Compound 131], in test [1] (Compounds 10-999), the IC50 was below 100 nM. Further, in test [2] (setting [3]), the “% of modification” value is “A (percent of modification of PIK3CA protein ≥75%)”.
`C=CC(=O)N1CCn2nc(-c3nc(-c4cncc(CN(C)C)c4)c4ccsc4c3-c3c(F)cc(F)cc3OCCOC)cc2C1C` (stereo not shown) [Compound 1141]: the half-inhibitory concentration (IC50) in test [1] (Compounds 1000-1279) was below 100 nM. Also, in test [2] (setting [4]), the “% of modification” value is listed as “A (percent of modification of PIK3CA protein ≥75%)”.

By IC50 is commonly meant the concentration that gives 50% inhibition.
